Data: patent US20100298141A1, “SUBSTITUTED PYRIDINE N-OXIDE HERBICIDES” (E. I. DU PONT DE NEMOURS AND COMPANY, priority 2007, published 2010)

Legend:
eastern black nightshade = experiment: Test C pre-/postemergence test; assay type: in vivo, Solanum ptycanthum
How it was run: (§1)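 Test chemicals were formulated with surfactant in a non-phytotoxic solvent and sprayed both on freshly planted seeds (preemergence) and on 1- to 4-leaf plants of 2–18 cm (postemergence). Flooded-paddy pots received compound directly into 3 cm of standing water, maintained for the test.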

wheat = experiment: Test C pre-/postemergence test; assay type: in vivo, Triticum aestivum; conditions: for Plant response rating, Wheat: 31 g ai/ha, scale 0 to 100 (0 no effect, 100 complete control)
How it was run: as §1

johnsongrass = experiment: Test C pre-/postemergence test; assay type: in vivo, Sorghum halepense; conditions: for Plant response rating, Johnsongrass: 31 g ai/ha, scale 0 to 100 (0 no effect, 100 complete control)
How it was run: as §1

giant foxtail = experiment: Test C pre-/postemergence test; assay type: in vivo, Setaria faberii; conditions: for Plant response rating, Foxtail, Giant: 31 g ai/ha, scale 0 to 100 (0 no effect, 100 complete control)
How it was run: as §1

Italian ryegrass = experiment: Test C pre-/postemergence test; assay type: in vivo, Lolium multiflorum; conditions: for Plant response rating, Ryegrass, Italian: 31 g ai/ha, scale 0 to 100 (0 no effect, 100 complete control)
How it was run: as §1

[1] = tested on: common (oilseed) sunflower; experiment: Test C pre-/postemergence test; assay type: in vivo, Helianthus annuus
How it was run: as §1

morningglory [2] = experiment: Test C pre-/postemergence test; assay type: in vivo, Ipomoea coccinea
How it was run: as §1

redroot pigweed = experiment: Test A pre-/postemergence greenhouse test; assay type: in vivo, Amaranthus retroflexus; conditions: for Plant response rating, Pigweed: 0 to 100 scale where 0 is no effect and 100 is complete control; for Pigweed plant response rating: 0 to 100 scale
How it was run: (§2)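 Test compounds in non-phytotoxic solvent with surfactant were applied as a preemergence soil spray to seeded loam/sand pots and, concurrently, postemergence to plants at 2–10 cm, one- to two-leaf stage. About ten days in greenhouse, then injury visually rated against untreated controls.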

rice = experiment: Test C flooded paddy test; assay type: in vivo, Oryza sativa; conditions: Flood
How it was run: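 Compound was added to standing water 3 cm above soil, flood maintained, and plants held in a greenhouse before visual scoring against controls at 13 to 15 days.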

corn [3] = experiment: Test C pre-/postemergence test; assay type: in vivo, Zea mays; conditions: for Plant response rating, Corn: 31 g ai/ha, scale 0 to 100 (0 no effect, 100 complete control)
How it was run: as §1

wild oat = experiment: Test C pre-/postemergence test; assay type: in vivo, Avena fatua; conditions: for Plant response rating, Oat, Wild: 31 g ai/ha, scale 0 to 100 (0 no effect, 100 complete control)
How it was run: as §1

corn [4] = experiment: Test A pre-/postemergence greenhouse test; assay type: in vivo, Zea mays; conditions: for Plant response rating, Corn: 0 to 100 scale where 0 is no effect and 100 is complete control; for Corn plant response rating: 0 to 100 scale
How it was run: as §2

bermudagrass = experiment: Test C pre-/postemergence test; assay type: in vivo, Cynodon dactylon; conditions: for Plant response rating, Bermudagrass: 31 g ai/ha
How it was run: as §1

kochia = experiment: Test C pre-/postemergence test; assay type: in vivo, Kochia scoparia; conditions: for Plant response rating, Kochia: 31 g ai/ha, scale 0 to 100 (0 no effect, 100 complete control)
How it was run: as §1

cocklebur = experiment: Test C pre-/postemergence test; assay type: in vivo, Xanthium strumarium; conditions: for Plant response rating, Cocklebur: 31 g ai/ha, scale 0 to 100 (0 no effect, 100 complete control)
How it was run: as §1

morningglory [5] = experiment: Test A pre-/postemergence greenhouse test; assay type: in vivo, Ipomoea spp.; conditions: for Plant response rating, Morningglory: 0 to 100 scale where 0 is no effect and 100 is complete control; for Morningglory plant response rating: 0 to 100 scale
How it was run: as §2

yellow nutsedge = experiment: Test C pre-/postemergence test; assay type: in vivo, Cyperus esculentus; conditions: for Plant response rating, Nutsedge, Yellow: 31 g ai/ha, scale 0 to 100 (0 no effect, 100 complete control)
How it was run: as §1

[6] = 62 g ai/ha, Preemergence, scale 0 to 100
[7] = 125 g ai/ha, preemergence, scale 0 (no effect) to 100 (complete control)
[8] = preemergence, 250 g ai/ha, scale 0 (no effect) to 100 (complete control)
[9] = Postemergence, 500 g ai/ha, 0 is no effect, 100 is complete control
[10] = Preemergence, 125 g ai/ha, 0 no effect, 100 complete control
[11] = 62 g ai/ha, scale 0 to 100 (0 no effect, 100 complete control)
[12] = 250 g ai/ha, scale 0 to 100, 0 no effect, 100 complete control, 13 to 15 days
[13] = 62 g ai/ha, Preemergence, scale 0 to 100 (0 no effect, 100 complete control)
[14] = Preemergence, scale 0 to 100 (0 no effect, 100 complete control)
[15] = Preemergence, 31 g ai/ha, scale 0 to 100 (0 no effect, 100 complete control)

Compound: Cn1nc(C(F)(F)F)c(C[S+]([O-])c2ccc(Cl)c[n+]2[O-])c1OCC(F)F (stereo not shown) [Compound 85]
- Nightshade plant response rating (eastern black nightshade; [6]): 85
- Nightshade plant response rating (eastern black nightshade; [7]): 100
- Nightshade plant response rating (eastern black nightshade; [8]): 100
- Wheat plant response rating (wheat; [6]): 50
- Wheat plant response rating (wheat; [7]): 70
- Plant response rating, Wheat (wheat; Preemergence): 50
- Wheat plant response rating (wheat; [8]): 100
- Johnsongrass plant response rating (johnsongrass; [6]): 85
- Johnsongrass plant response rating (johnsongrass; [7]): 100
- Plant response rating, Johnsongrass (johnsongrass; Preemergence): 85
- Johnsongrass plant response rating (johnsongrass; [8]): 100
- Foxtail, Giant plant response rating (giant foxtail; [6]): 100
- Plant response rating, Foxtail, Giant (giant foxtail; Preemergence): 85
- Foxtail, Giant plant response rating (giant foxtail; [8]): 100
- Ryegrass, Italian plant response rating (Italian ryegrass; [6]): 90
- Ryegrass, Italian plant response rating (Italian ryegrass; [7]): 90
- Plant response rating, Ryegrass, Italian (Italian ryegrass; Preemergence): 80
- Ryegrass, Italian plant response rating (Italian ryegrass; [8]): 100
- Sunflower plant response rating [1, 6]: 30
- Sunflower plant response rating [1, 7]: 50
- Sunflower plant response rating [1, 8]: 80
- Morningglory plant response rating (morningglory [2]; [6]): 90
- Morningglory plant response rating (morningglory [2]; [7]): 90
- Morningglory plant response rating (morningglory [2]; [8]): 100
- Plant response rating, Pigweed (redroot pigweed; Postemergence, 125 g ai/ha): 60
- Pigweed plant response rating (redroot pigweed; [9]): 90
- Pigweed plant response rating (redroot pigweed; [10]): 70
- Plant response rating, Pigweed (redroot pigweed; Preemergence, 500 g ai/ha): 90
- Plant response rating, Rice (rice; 31 g ai/ha, scale 0 to 100 (0 no effect, 100 complete control)): 0
- Plant response rating, Rice (rice; [11]): 0
- Plant response rating, Rice (rice; 125 g ai/ha, scale 0 to 100, 0 no effect, 100 complete control, 13 to 15 days): 30
- Plant response rating, Rice (rice; [12]): 50
- Corn plant response rating (corn [3]; [6]): 95
- Corn plant response rating (corn [3]; [7]): 98
- Plant response rating, Corn (corn [3]; Preemergence): 95
- Corn plant response rating (corn [3]; [8]): 99
- Oat, Wild plant response rating (wild oat; [6]): 80
- Oat, Wild plant response rating (wild oat; [7]): 85
- Plant response rating, Oat, Wild (wild oat; Preemergence): 80
- Oat, Wild plant response rating (wild oat; [8]): 100
- Plant response rating, Corn (corn [4]; Postemergence, 125 g ai/ha): 0
- Corn plant response rating (corn [4]; [9]): 60
- Corn plant response rating (corn [4]; [10]): 0
- Plant response rating, Corn (corn [4]; Preemergence, 500 g ai/ha): 80
- Bermudagrass plant response rating (bermudagrass; [13]): 100
- Bermudagrass plant response rating (bermudagrass; [7]): 100
- Plant response rating, Bermudagrass (bermudagrass; [14]): 90
- Bermudagrass plant response rating (bermudagrass; [8]): 100
- Kochia plant response rating (kochia; [6]): 100
- Kochia plant response rating (kochia; [7]): 100
- Plant response rating, Kochia (kochia; Preemergence): 100
- Kochia plant response rating (kochia; [8]): 100
- Cocklebur plant response rating (cocklebur; [6]): 0
- Cocklebur plant response rating (cocklebur; [7]): 0
- Plant response rating, Cocklebur (cocklebur; Preemergence): 0
- Cocklebur plant response rating (cocklebur; [8]): 0
- Plant response rating, Morningglory (morningglory [5]; Postemergence, 125 g ai/ha): 70
- Morningglory plant response rating (morningglory [5]; [9]): 90
- Morningglory plant response rating (morningglory [5]; [10]): 60
- Plant response rating, Morningglory (morningglory [5]; Preemergence, 500 g ai/ha): 100
- Nutsedge, Yellow plant response rating (yellow nutsedge; [6]): 40
- Nutsedge, Yellow plant response rating (yellow nutsedge; [7]): 40
- Plant response rating, Nutsedge, Yellow (yellow nutsedge; Preemergence): 40
- Nutsedge, Yellow plant response rating (yellow nutsedge; [8]): 95

Compound: CC(Oc1c(C[S+]([O-])c2ccc(Cl)c[n+]2[O-])c(C(F)(F)F)nn1C)C(F)(F)F (stereo not shown) [Compound 87]
- Nightshade plant response rating (eastern black nightshade; [6]): 80
- Nightshade plant response rating (eastern black nightshade; [7]): 95
- Plant response rating, Nightshade (eastern black nightshade; [15]): 80
- Nightshade plant response rating (eastern black nightshade; [8]): 100
- Wheat plant response rating (wheat; [6]): 60
- Wheat plant response rating (wheat; [7]): 85
- Plant response rating, Wheat (wheat; Preemergence): 30
- Wheat plant response rating (wheat; [8]): 85
- Johnsongrass plant response rating (johnsongrass; [6]): 100
- Johnsongrass plant response rating (johnsongrass; [7]): 100
- Plant response rating, Johnsongrass (johnsongrass; Preemergence): 90
- Johnsongrass plant response rating (johnsongrass; [8]): 100
- Foxtail, Giant plant response rating (giant foxtail; [6]): 95
- Foxtail, Giant plant response rating (giant foxtail; [7]): 100
- Plant response rating, Foxtail, Giant (giant foxtail; Preemergence): 85
- Foxtail, Giant plant response rating (giant foxtail; [8]): 100
- Ryegrass, Italian plant response rating (Italian ryegrass; [6]): 95
- Ryegrass, Italian plant response rating (Italian ryegrass; [7]): 100
- Plant response rating, Ryegrass, Italian (Italian ryegrass; Preemergence): 95
- Ryegrass, Italian plant response rating (Italian ryegrass; [8]): 100
- Sunflower plant response rating [1, 6]: 50
- Sunflower plant response rating [1, 7]: 55
- Plant response rating, Sunflower [1, 15]: 40
- Sunflower plant response rating [1, 8]: 70
- Morningglory plant response rating (morningglory [2]; [6]): 80
- Morningglory plant response rating (morningglory [2]; [7]): 80
- Plant response rating, Morningglory (morningglory [2]; [15]): 60
- Morningglory plant response rating (morningglory [2]; [8]): 95
- Plant response rating, Pigweed (redroot pigweed; Postemergence, 125 g ai/ha): 50
- Pigweed plant response rating (redroot pigweed; [9]): 100
- Pigweed plant response rating (redroot pigweed; [10]): 90
- Plant response rating, Pigweed (redroot pigweed; Preemergence, 500 g ai/ha): 100
- Plant response rating, Rice (rice; [11]): 30
- Plant response rating, Rice (rice; [12]): 90
- Corn plant response rating (corn [3]; [6]): 95
- Corn plant response rating (corn [3]; [7]): 95
- Plant response rating, Corn (corn [3]; Preemergence): 85
- Corn plant response rating (corn [3]; [8]): 98
- Oat, Wild plant response rating (wild oat; [6]): 90
- Oat, Wild plant response rating (wild oat; [7]): 90
- Plant response rating, Oat, Wild (wild oat; Preemergence): 80
- Oat, Wild plant response rating (wild oat; [8]): 100
- Plant response rating, Corn (corn [4]; Postemergence, 125 g ai/ha): 60
- Corn plant response rating (corn [4]; [9]): 70
- Corn plant response rating (corn [4]; [10]): 40
- Plant response rating, Corn (corn [4]; Preemergence, 500 g ai/ha): 90
- Bermudagrass plant response rating (bermudagrass; [13]): 100
- Bermudagrass plant response rating (bermudagrass; [7]): 100
- Plant response rating, Bermudagrass (bermudagrass; [14]): 100
- Bermudagrass plant response rating (bermudagrass; [8]): 100
- Kochia plant response rating (kochia; [6]): 75
- Kochia plant response rating (kochia; [7]): 80
- Plant response rating, Kochia (kochia; Preemergence): 50
- Kochia plant response rating (kochia; [8]): 95
- Cocklebur plant response rating (cocklebur; [6]): 0
- Cocklebur plant response rating (cocklebur; [7]): 20
- Plant response rating, Cocklebur (cocklebur; Preemergence): 0
- Cocklebur plant response rating (cocklebur; [8]): 40
- Plant response rating, Morningglory (morningglory [5]; Postemergence, 125 g ai/ha): 40
- Morningglory plant response rating (morningglory [5]; [9]): 100
- Morningglory plant response rating (morningglory [5]; [10]): 20
- Plant response rating, Morningglory (morningglory [5]; Preemergence, 500 g ai/ha): 100
- Nutsedge, Yellow plant response rating (yellow nutsedge; [6]): 50
- Nutsedge, Yellow plant response rating (yellow nutsedge; [7]): 80
- Plant response rating, Nutsedge, Yellow (yellow nutsedge; Preemergence): 50
- Nutsedge, Yellow plant response rating (yellow nutsedge; [8]): 100
